Here are results for 13 molecules from patent US11339120B2, “Phenyl derivatives as cannabinoid receptor 2 agonists” (priority 2015, dated 2022).

Like-named read-outs stand apart in the source and are kept apart here.

For one test, the target named is T1, human CB1 receptors (Homo sapiens, UniProt P21554).
T1 construct: expressed in transfected cells; host or cells: CHO cells
In words: functional cAMP assay, CHO cells expressing human CB1. It is filed as cell-based. As for the experimental part: (§1) CHO cells expressing human CB1 or CB2 receptors are seeded 17-24 hours prior to the experiment 50.000 cells per well in a black 96 well plate with flat clear bottom (Corning Costar #3904) in DMEM (Invitrogen No. 31331), 1×HT supplement, with 10% fetal calf serum and incubated at 5% CO2 and 37° C. in a humidified incubator. The growth medium was exchanged with Krebs Ringer Bicarbonate buffer with 1 mM IBMX and incubated at 30° C. for 30 min. Compounds were added to a final assay volume of 100 μl and incubated for 30 min at 30° C. Using the cAMP-Nano-TRF detection kit the assay (Roche Diagnostics) was stopped by the addition of 50 μl lysis reagent (Tris, NaCl, 1.5% Triton X100, 2.5% NP40, 10% NaN3) and 50 μl detection solutions (20 μM mAb Alexa700-cAMP 1:1, and 48 μM Ruthenium-2-AHA-cAMP) and shaken for 2 h at room temperature. The time-resolved energy transfer is measured by a TRF reader (Evotec Technologies GmbH), equipped with a ND:YAG laser as excitation source. The plate is measured twice with the excitation at 355 nm and at the emission with a delay of 100 ns and a gate of 100 ns, total exposure time 10 s at 730 (bandwidth 30 nm) or 645 nm (bandwidth 75 nm), respectively. The FRET signal is calculated as follows: FRET=T730-Alexa730-P(T645-B645) with P=Ru730-B730/Ru645-B645, where T730 is the test well measured at 730 nM, T645 is the test well measured at 645 nm, B730 and B645 are the buffer controls at 730 nm and 645 nm, respectively. cAMP content is determined from the function of a standard curve spanning from 10 μM to 0.13 nM cAMP.
(§2) EC50 values were determined using Activity Base analysis (ID Business Solution, Limited). The EC50 values for a wide range of cannabinoid agonists generated from this assay were in agreement with the values published in the scientific literature.
Background: cAMP levels reflect the balance of adenylyl cyclase and phosphodiesterase activity.

In a further test the target is T2, human CB2 receptors (Homo sapiens, UniProt P34972).
T2 construct: expressed in transfected cells; host or cells: CHO cells
T2 sequence (P34972 whole entry): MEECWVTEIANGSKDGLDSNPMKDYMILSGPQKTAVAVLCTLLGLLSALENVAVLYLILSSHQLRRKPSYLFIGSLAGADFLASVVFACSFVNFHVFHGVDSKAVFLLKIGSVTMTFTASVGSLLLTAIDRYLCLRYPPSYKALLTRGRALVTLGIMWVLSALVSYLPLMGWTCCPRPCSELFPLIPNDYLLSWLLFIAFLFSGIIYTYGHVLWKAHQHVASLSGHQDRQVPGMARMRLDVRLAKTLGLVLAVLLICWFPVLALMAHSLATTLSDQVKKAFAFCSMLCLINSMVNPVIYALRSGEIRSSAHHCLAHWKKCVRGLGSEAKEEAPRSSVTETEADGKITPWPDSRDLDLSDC
In words: functional cAMP assay, CHO cells expressing human CB2. Format: cell-based. Here is the method: as §1, §2

Setting [1] is: functional cAMP assay, CHO cells expressing human CB2, read-out: Human CB2 EC50.

T1 sequence (P21554 whole entry): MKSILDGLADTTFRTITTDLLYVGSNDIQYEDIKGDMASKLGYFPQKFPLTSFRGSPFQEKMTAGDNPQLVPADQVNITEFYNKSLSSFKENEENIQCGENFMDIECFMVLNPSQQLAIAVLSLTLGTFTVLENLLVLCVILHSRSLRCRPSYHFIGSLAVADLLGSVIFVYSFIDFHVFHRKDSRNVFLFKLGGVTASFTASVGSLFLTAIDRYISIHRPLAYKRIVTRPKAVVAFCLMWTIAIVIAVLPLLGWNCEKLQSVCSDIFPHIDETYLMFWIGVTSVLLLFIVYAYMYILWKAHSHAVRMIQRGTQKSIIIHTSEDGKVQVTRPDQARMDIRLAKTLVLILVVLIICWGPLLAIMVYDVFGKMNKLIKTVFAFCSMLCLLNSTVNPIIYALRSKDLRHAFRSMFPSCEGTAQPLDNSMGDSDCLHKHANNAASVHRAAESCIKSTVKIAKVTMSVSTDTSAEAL

The EC50 is the midpoint of the concentration-response curve. With `C[C@@](CC(N)=O)(NC(=O)c1ccc(C2CC2)c(OCC(F)(F)F)c1)C1CC1` (single isomer, unassigned) [Example 35, (−)-N-[4-Amino-2-cyclopropyl-4-oxobutan-2-yl]-4-cyclopropyl-3-(2,2,2-trifluoroethoxy)benzamide], the half-maximal effective concentration (EC50) on human CB1 receptors is > 10000 nM; at human CB2 receptors, 8.56 nM.
With `Cc1nc([C@](C)(CC2CC2)NC(=O)c2ccc(C3CC3)c(OC(C)C)c2)no1` (single isomer, unassigned) [Example 38, 4-Cyclopropyl-N-[(2S)-1-cyclopropyl-2-(5-methyl-1,2,4-oxadiazol-3-yl)propan-2-yl]-3-[(propan-2-yl)oxy]benzamide or enantiomer], the half-maximal effective concentration (EC50) was > 10000 nM at human CB1 receptors and 26.6 nM on human CB2 receptors.
Turning to `Cc1ccc(C(=O)N[C@@H](CC(C)C)C(N)=O)cc1OCC1CC1` [Example 1, N-[(2S)-1-amino-4-methyl-1-oxopentan-2-yl]-3-(cyclopropylmethoxy)-4-methylbenzamide], the concentration giving a half-maximal response (EC50) is > 10000 nM at human CB1 receptors and 136 nM on human CB2 receptors (setting [1]).
The matching figures for `Cc1nc(C(C)(C)NC(=O)c2ccc(C)c(OCC3CC3)c2)no1` [Example 2, 3-(Cyclopropylmethoxy)-4-methyl-N-[2-(5-methyl-1,2,4-oxadiazol-3-yl)propan-2-yl]benzamide]: > 10000 nM and 492 nM.
In the same order, the values of `Cc1nc(C(C)(C)NC(=O)c2ccc(C3CC3)c(OCC3CC3)c2)no1` [Example 3, 4-Cyclopropyl-3-(cyclopropylmethoxy)-N-[2-(5-methyl-1,2,4-oxadiazol-3-yl)propan-2-yl]benzamide] are > 10000 nM and 122 nM.
Consider `CC(C)C[C@H](NC(=O)c1ccc(C2CC2)c(OCC2CC2)c1)C(N)=O` [Example 4, N^2-[4-Cyclopropyl-3-(cyclopropylmethoxy)benzoyl]-L-leucinamide], for which the concentration for a half-maximal effect (EC50) at human CB1 receptors is > 10000 nM; at human CB2 receptors, 18 nM.
For `CC(C)(CO)NC(=O)c1ccc(C2CC2)c(OCC2CC2)c1` [Example 5, 4-Cyclopropyl-3-(cyclopropylmethoxy)-N-(1-hydroxy-2-methylpropan-2-yl)benzamide], the EC50 at human CB1 receptors is > 10000 nM; at human CB2 receptors (setting [1]), 130 nM.
Consider `CC(C)(NC(=O)c1ccc(C2CC2)c(OCC2CC2)c1)c1nccs1` [Example 6, 4-Cyclopropyl-3-(cyclopropylmethoxy)-N-[2-(1,3-thiazol-2-yl)propan-2-yl]benzamide], for which the values for the EC50 on human CB1 receptors and on human CB2 receptors were 539 nM and 26 nM, respectively.
Consider `CCOC(=O)C(CC)(CC)NC(=O)c1ccc(C2CC2)c(OCC2CC2)c1` [Example 7, Ethyl 2-[4-cyclopropyl-3-(cyclopropylmethoxy)benzamido]-2-ethylbutanoate], for which the EC50 at human CB1 receptors was > 10000 nM; on human CB2 receptors it was 1.44 nM.
As to `CCC(CC)(NC(=O)c1ccc(C2CC2)c(OCC2CC2)c1)C(=O)O` [Example 8, 2-[4-Cyclopropyl-3-(cyclopropylmethoxy)benzamido]-2-ethylbutanoic acid], the values for the concentration for a half-maximal effect (EC50) at human CB1 receptors and on human CB2 receptors (setting [1]) were > 10000 nM and 2170 nM, respectively.
Consider `CCC(CC)(NC(=O)c1ccc(C2CC2)c(OCC2CC2)c1)C(=O)N1CC(F)(F)C1` [Example 9, 4-Cyclopropyl-3-(cyclopropylmethoxy)-N-[3-(3,3-difluoroazetidine-1-carbonyl)pentan-3-yl]benzamide], for which the figures for the concentration for a half-maximal effect (EC50) at human CB1 receptors and on human CB2 receptors were > 10000 nM and 7.56 nM, respectively.
As for `Cc1nc(C(C)(C)NC(=O)c2ccc(N3CC(F)(F)C3)c(OCC3CC3)c2)no1` [Example 10, 3-(Cyclopropylmethoxy)-4-(3,3-difluoroazetidin-1-yl)-N-[2-(5-methyl-1,2,4-oxadiazol-3-yl)propan-2-yl]benzamide], the EC50 at human CB1 receptors was > 10000 nM; on human CB2 receptors, 32.9 nM.
Take `CC(C)(NC(=O)c1ccc(N2CC(F)(F)C2)c(OCC2CC2)c1)c1noc(N)n1` [Example 11, N-[2-(5-Amino-1,2,4-oxadiazol-3-yl)propan-2-yl]-3-(cyclopropylmethoxy)-4-(3,3-difluoroazetidin-1-yl)benzamide]: the figures for the EC50 at human CB1 receptors and on human CB2 receptors were > 10000 nM and 98.7 nM, respectively.
